“Also recorded” adds a separate entry of the source.
How the values were obtained:
[1] = Gravimetric Vapour Sorption (GVS) with XRPD post-GVS; type: physicochemical; conditions: for Form change at high RH (>90%) in GVS experiments: above 90% RH; for XRPD post GVS (uptake 0-90% RH): after GVS 0-90% RH
Procedure: Sorption isotherms were obtained using a SMS DVS Intrinsic moisture sorption analyzer, controlled by DVS Intrinsic Control software v1.0.1.2 (or v 1.0.1.3). The sample temperature was maintained at 25° C. by the instrument controls. The humidity was controlled by mixing streams of dry and wet nitrogen, with a total flow rate of 200 ml/min. The relative humidity was measured by a calibrated Rotronic probe (dynamic range of 1.0-100% RH), located near the sample. The weight change, (mass relaxation) of the sample as a function of % RH was constantly monitored by the microbalance (accuracy ±0.005 mg).
A sample (e.g., 20 mg) was placed in a tared mesh stainless steel basket under ambient conditions. The sample was loaded and unloaded at 40% RH and 25° C. (typical room conditions). A moisture sorption isotherm was performed as outlined below (2 scans giving 1 complete cycle). Standard isotherms were performed at 25° C. at 10% RH intervals over a 0-90% RH range. Data analysis was carried out using Microsoft Excel using DVS Analysis Suite v6.2 (or 6.1 or 6.0).
In a cycle of 2 scans, the first scan was performed with adsorption of 40-90% RH, followed by a second scan with desorption of 90-0% RH and adsorption of 0-40% RH, with intervals of 10% RH, at 25° C. with stability dm/dt of 0.002% ° C./min. The sorption time was 6 hr time out.
The sample was recovered after completion of the isotherm and re-analyzed by XRPD. Custom moisture sorption methods were also performed at 25° C. at fixed % RH intervals over a 0-95% RH range, with the purpose to fully understand the sorption/desorption behavior of the compound under elevated conditions.
To further explore the humidity behavior of Sample 1 (Form 1) upon exposure to high RH (>90%), custom GVS experiments were designed and carried out. Initially, the sample was treated by holding at 90 and then 95% RH for ˜12 hours to see if hydrate formation could be observed (HighRH method of Steps 1 and 2 of Table 2, FIGS. 6C-6D).
To test the stability of the hydrated state, GVS method HighRH_Desorp_3 was designed with a desorption step and subsequent adsorption (see Table 2 with steps 1-4, FIGS. 6E-6F).
Finally, to ensure complete conversion to the anhydrous and hydrated forms, a GVS experiment was designed to increase both the length of the desorption step at 0% RH, and the adsorption step at 95% RH, respectively (Table 3). Based on the weight stabilization observed in the kinetic plots for Sample 1 in HighRH and HighRH_Desorp_3 methods discussed above (FIGS. 6D and 6F), a holding time of 800 mins at 0% RH and 1600 mins at 95% RH were chosen. A double cycle was also recorded for this experiment to observe whether the sample would return to Form 1 or form a mixed anhydrous/hydrated species (see Table 3, FIGS. 6G-6H).

[2] = Storage at elevated temperature/humidity, solid form checked by XRPD; type: physicochemical; conditions: for XRPD after storage at 25° C./97% RH for 1 week (solid form) / XRPD after storage at 40° C./75% RH for 1 week (solid form): 1 week (7 days); for Form change on exposure to high RH (>90%): e.g. 7 days / prolonged exposure
Procedure: Samples 1 and 2 were characterized by XRPD at various conditions. XRPD patterns were collected for the samples at ambient condition as the samples were provided; at variable temperature (VT-XRPD); at variable humidity (VH-XRPD); after the samples were exposed to 40° C./75% RH for 1 week and 25° C./97% RH for 1 week, respectively; and after a GVS measurement wherein the samples were exposed to 0-90% RH. Samples 1 and 2 were also characterized by ^1H NMR, TGA, DSC, KF, IC, GVS (exposed to 0-90% RH), PLM, SEM, and HPLC (Table 5). […]

[3] = as above; type: physicochemical
estrogen receptor (ER) = molecular target: T1, estrogen receptor (ER) (Homo sapiens, UniProt P03372); conditions: cited from earlier work
T1 sequence (P03372 1-595): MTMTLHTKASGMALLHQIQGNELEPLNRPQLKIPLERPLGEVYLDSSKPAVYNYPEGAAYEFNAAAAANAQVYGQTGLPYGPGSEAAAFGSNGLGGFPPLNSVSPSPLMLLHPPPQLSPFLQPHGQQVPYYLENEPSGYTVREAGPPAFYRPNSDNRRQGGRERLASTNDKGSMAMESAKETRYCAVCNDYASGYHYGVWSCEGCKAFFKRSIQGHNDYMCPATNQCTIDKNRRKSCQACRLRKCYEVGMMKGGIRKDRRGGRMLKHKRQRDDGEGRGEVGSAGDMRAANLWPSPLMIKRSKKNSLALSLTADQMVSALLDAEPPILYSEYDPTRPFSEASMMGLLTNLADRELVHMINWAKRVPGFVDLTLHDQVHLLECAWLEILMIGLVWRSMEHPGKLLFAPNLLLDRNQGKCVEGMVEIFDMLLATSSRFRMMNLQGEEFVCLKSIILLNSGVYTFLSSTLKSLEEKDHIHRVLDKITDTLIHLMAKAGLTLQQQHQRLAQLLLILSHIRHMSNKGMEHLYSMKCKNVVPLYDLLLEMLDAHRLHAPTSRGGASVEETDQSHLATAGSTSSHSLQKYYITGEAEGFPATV

[4] = Variable humidity XRPD (VH-XRPD); type: physicochemical
Procedure: Samples run under non-ambient conditions were prepared by gently packing into a cavity, cut into a silicon wafer to obtain a flat surface and mounted onto a humidity stage with an Ansyco controller and humidity sensor positioned directly next to the sample holder. The data were collected at 298.15 K with water temperature of 35.0° C., in an angular range of 3 to 31° 2θ, with a step size of 0.025° 2θ, a collection time of 2.0 sec/step, and a collection time at each % RH was 41 min 28 sec.
X-Ray Powder Diffraction (XRPD) patterns were collected at variable humidity values from 0 to 95% RH, based upon the humidity behavior of each compound observed during GVS experiments (described herein). For each Variable Humidity X-Ray Powder Diffraction (VH-XRPD) experiment performed, the % RH values selected are provided alongside the relevant experimental result. Full tables of detailing the % RH value at each collection point and the associated delay time at each value are provided in Tables 10-12.
To fully characterize the polymorphic behavior of Samples 1 and 2 at variable humidity, and to collect reference XRPD patterns for the ‘pure’ anhydrous Form 1 and Form 2 material, and ‘pure’ hydrated Form 3 material, Variable Humidity (VH) XRPD experiments were conducted on Samples 1 and 2. Initially, VH-XRPD experiments were conducted using Sample 1, and XRPD diffractograms were collected at selected humidity values, in line with those collected during GVS experiments (see FIGS. 6E-6F). XRPD diffractograms were collected initially at ambient RH, then collected over 24 hours at ˜95% RH and finally collected during desorption steps to 0% RH and over 10 hours at 0% RH (see FIG. 4C).

[5] = Solubility assessment and polymorph screen on Sample 1 (Form 1) of RAD1901-2HCl in 24 solvent systems; type: physicochemical
Procedure: Solubility assessment was carried out on the Sample 1 of RAD1901-2HCl (majorly Form 1 shown by XRPD) in 24 solvent systems in HPLC vials (sample IDs: A1 to A24). RAD1901-2HCl (25 mg) was treated with increasing volumes of solvent until the material fully dissolved or until a maximum of 60 vol had been used (Table 13).
After each addition of solvent, the system was stirred for 5 to 10 minutes at 25° C., then shaken at 50° C. for 5 to 10 minutes, and observations made. Samples were allowed to stand at room temperature for 5 min before the addition of a new aliquot of solvent. After the assessment was completed, the suspensions obtained were matured (maturation) and the clear solutions were cooled (cooling) and slowly evaporated (evaporation) as described below. All solids recovered from maturation, cooling and evaporation experiments were analyzed by high resolution XRPD.
The suspensions obtained during the solubility assessment were matured by shaken in a maturation chamber between 50° C. and RT (8 hr per cycle) for up to 5 days. Then the mixture was allowed to stand at room temperature for 10 minutes. The resulting solids were filtered and air dried and analyzed by XRPD. The clear solutions obtained during maturation were evaporated in ambient conditions and the resulting residues were analyzed by XRPD.
The clear solutions obtained during the course of the solubility assessment were cooled on a Polar Bear device from 50° C. to 5° C. at 0.1° C./min. Solids obtained upon cooling were recovered from the vials, air dried and analyzed by XRPD. If no solid was obtained, the solutions were evaporated slowly through a needle inserted into the septum cap of the vial until a solid appeared at ambient conditions and the resulting solids were filtered, air dried and analyzed by XRPD.

[6] = Variable temperature XRPD (VT-XRPD); type: physicochemical
Procedure: Samples run under non-ambient conditions were mounted on a silicon wafer with a heat-conducting compound. The sample was then heated from ambient to the appropriate temperature at 20° C./min and subsequently held isothermally for 1 minute before data collection was initiated.
Variable Temperature XRPD (VT-XRPD) experiments were therefore conducted to examine the thermal behavior of Sample 2 observed by DSC (see FIG. 9B). […] (blue) as Form 1 material (FIG. 5D).

SMILES: CCNCCc1ccc(CN(CC)c2cc(OC)ccc2[C@@H]2CCc3cc(O)ccc3C2)cc1.Cl.Cl [Form 1]
- GVS: reversibility of uptake and loss ([1]; 0-90% RH): exhibits reversible uptake and loss,
- Hygroscopicity (GVS), in words ([1]; 0-90% RH): lower hygroscopicity; also recorded: relatively non-hygroscopic; also recorded: low hygroscopicity; also recorded: Sample is slightly hygroscopic, but
- GVS total mass change between 0 and 90% RH ([1]; 0-90% RH (Table 17)): Total mass change of 1.7% wt.
- Form change at high RH (>90%) in GVS experiments [1]: started converting to the hydrate Form 3
- XRPD post GVS (uptake 0-90% RH) ([1]; 25° C.): unchanged XRPD pattern; also recorded: No changes; also recorded: Form 1
- XRPD after storage at 25° C./97% RH for 1 week (solid form) [2]: converted to Form 3; also recorded: conversion towards a hydrated state Form 3; also recorded: Converts to Form 3 at 25° C./
- XRPD after storage at 40° C./75% RH for 1 week (solid form) [2]: stable; also recorded: Remains as Form 1 at 40° C./
- Form change on exposure to high RH (>90%) [2]: irreversibly converted to the hydrate Form 3
- Stability of the form (heat/humidity), in words ([2]; summary of characterizations of Samples 1 and 2): stable

SMILES: CCNCCc1ccc(CN(CC)c2cc(OC)ccc2[C@@H]2CCc3cc(O)ccc3C2)cc1.Cl.Cl [Form 2]
- Hygroscopicity (GVS), in words ([1]; 0-90% RH): hygroscopic
- Form obtained on exposure to >40% RH for 7 days ([2]; >40% RH, 7 days): Form 3

SMILES: CCNCCc1ccc(CN(CC)c2cc(OC)ccc2[C@@H]2CCc3cc(O)ccc3C2)cc1.Cl.Cl [Lyophilization in water]
- XRPD post storage at 25° C./97% RH (10 days) ([3]; 25° C./97% RH): Consistent with Form 3
- XRPD post storage at 40° C./75% RH (10 days) ([3]; 40° C./75% RH): Consistent with Form 3

SMILES: CCNCCc1ccc(CN(CC)c2cc(OC)ccc2[C@@H]2CCc3cc(O)ccc3C2)cc1 [RAD1901]
- Binding selectivity for the estrogen receptor (ER), in words (estrogen receptor (ER)): good selectivity

SMILES: CCNCCc1ccc(CN(CC)c2cc(OC)ccc2[C@@H]2CCc3cc(O)ccc3C2)cc1.Cl.Cl [Sample 1]
- GVS: reversibility of uptake and loss ([1]; 0-90% RH): (reversible)
- GVS uptake 0-90% RH ([1]; 0-90% RH, 25° C.): 1.8% wt.
- GVS mass uptake when held at 95% RH for ~12 hours (HighRH method) ([1]; 95% RH, ~12 hours): 5-6 % wt.
- Form change at high RH (>90%) in GVS experiments [1]: irreversibly converted to a hydrate (Form 3)
- XRPD post GVS (uptake 0-90% RH) ([1]; 25° C.): Form 1
- XRPD post-GVS (HighRH_DoubleCycle_2 method) ([1]; double cycle, 1600 mins at 95% RH, 800 mins at 0% RH): Form 3
- XRPD post-GVS (HighRH method) ([1]; held at 90 then 95% RH for ~12 hours): mixture of states or incomplete conversion
- XRPD post-GVS (HighRH_Desorp_3 method) ([1]; single cycle to 95% RH, desorption to 0% RH, adsorption to 40% RH): mixture of Form 1 and Form 3
- VH-XRPD: form change over 24 hr at ~95% RH ([4]; ~95% RH, 24 hr): unable to show a direct conversion; also recorded: Form 3 over
- XRPD after storage at 25° C./97% RH for 1 week (solid form) [2]: Form 3
- XRPD after storage at 40° C./75% RH for 1 week (solid form) [2]: Form 1
- Form change on exposure to high RH (>90%) [2]: converted to the hydrate Form 3
- Solubility in alcohols, esters, and hydrocarbon solvents, in words ([5]; alcohols, esters, hydrocarbon solvents): low solubility
- Solubility in water, in words ([5]; water): highly soluble
- Solubility in water and t-butanol/water (1:1), in words ([5]; water, t-butanol/water (1:1)): high solubility

SMILES: CCNCCc1ccc(CN(CC)c2cc(OC)ccc2[C@@H]2CCc3cc(O)ccc3C2)cc1.Cl.Cl [Sample 2]
- Hygroscopicity (GVS), in words ([1]; 0-90% RH): hygroscopic
- XRPD post GVS (uptake 0-90% RH) ([1]; 25° C.): mixture of Form 2 and Form 3
- VT-XRPD: form after melt and recrystallization above 175° C. ([6]; heated above 175° C.): converted to Form 1; also recorded: recrystallized as Form 1
- VT-XRPD: form obtained on heating to 100° C. ([6]; heating to 100° C.): converted to Form 2; also recorded: Anhydrous Form 2
- VH-XRPD: form at 0% RH ([4]; 0% RH): 5E). Form 2 at 0%
- VH-XRPD: form change at >90% RH ([4]; >90% RH (92-93% RH)): conversion toward the hydrated state; also recorded: Conversion to Form 3
- XRPD after storage at 25° C./97% RH for 1 week (solid form) [2]: Form 3
- XRPD after storage at 40° C./75% RH for 1 week (solid form) [2]: Form 3

From US11643385B2, “Polymorphic forms of RAD1901-2HCl” (RADIUS PHARMACEUTICALS, INC., priority 2018, dated 2023)
